In publication PMC4061482 (Frontiers in Oncology, 2014):

Experiments:
[1] = test system: AKR1C3; parameters: method as in PMID 23454516; conditions: cited from earlier work
[2] = test system: T47D AKR1C3 cells; assay: 17β-estradiol ELISA after estrone stimulation; format: cell-based, human; conditions: 10 μM; 28 nM estrone, 24 h
Procedure: (§1) Cells were seeded into 96-well plates in hormone-deprived media at appropriate seeding densities [10,000–50,000 cells per well for all lines except HCC1500 (100,000 cells per well; 11β-PGF2α ELISA)] to reach approximately 70% confluency at the time of sampling and were left to settle for 24 h at 37°C and 5% CO2. Inhibitors were added to the plates at single or multiple concentrations for 1 h prior to administration of equimolar (28 nM) concentrations of PGD2 (11β-PGF2α ELISA), androstenedione (testosterone ELISA), or estrone (17β-estradiol ELISA). The plates were returned to the incubator for a further 24 h before cell supernatant was removed for analysis of 11β-PGF2α, testosterone, or 17β-estradiol by ELISA as per manufacturer’s instructions (11β-PGF2α and testosterone ELISA, Cayman Chemical Company; 17β-estradiol ELISA, Oxford Biomedical Research), and cells were fixed for sulforhodamine B analysis as described below. Each ELISA plate was read at a wavelength of 405 nm (11β-PGF2α and testosterone) or 650 nM (17β-estradiol) on a SpectraMax M2 microplate reader (Molecular Devices) and quantitated against a standard curve generated in hormone-deprived culture media. Cross-reactivity to PGD2, androstenedione, or estrone was accounted for by adding these to cell-free wells of each ELISA plate.
(§2) 17β-estradiol is predominantly produced from estrone by 17β-HSD1 in breast tissue in post-menopausal women ([44]). Although less catalytically efficient than 17β-HSD1, AKR1C3 can also convert estrone to 17β-estradiol ([10], [12], [14]), and therefore, may play a role in ER-positive breast cancer development. To investigate the activity of AKR1C3 in 17β-estradiol production, ER-positive breast cancer cells and known high and low AKR1C3-expressing cells were stimulated with estrone for 24 h prior to determination of 17β-estradiol levels by ELISA.

[3] = test system: MCF7 cells; assay: 17β-estradiol ELISA after estrone stimulation; format: cell-based, human; conditions: Homo sapiens, MCF7; 10 μM; 28 nM estrone, 24 h; read-out: Inhibition of 17β-estradiol formation
Procedure: as §1, §2

[4] = test system: T47D cells; assay: 17β-estradiol ELISA after estrone stimulation; format: cell-based, human; conditions: 10 μM; 28 nM estrone, 24 h
Procedure: as §1, §2

[5] = test system: LAPC4 AKR1C3 cells; assay: Testosterone ELISA after androstenedione stimulation; format: cell-based; conditions: Homo sapiens, 28 nM androstenedione, 24 h, read-out: Inhibition of testosterone levels
Procedure: Cells were seeded into 96-well plates in hormone-deprived media at appropriate seeding densities [10,000–50,000 cells per well for all lines except HCC1500 (100,000 cells per well; 11β-PGF2α ELISA)] to reach approximately 70% confluency at the time of sampling and were left to settle for 24 h at 37°C and 5% CO2. Inhibitors were added to the plates at single or multiple concentrations for 1 h prior to administration of equimolar (28 nM) concentrations of PGD2 (11β-PGF2α ELISA), androstenedione (testosterone ELISA), or estrone (17β-estradiol ELISA). […] Each ELISA plate was read at a wavelength of 405 nm (11β-PGF2α and testosterone) or 650 nM (17β-estradiol) on a SpectraMax M2 microplate reader (Molecular Devices) and quantitated against a standard curve generated in hormone-deprived culture media. […]
Since AKR1C3 has been implicated in the development of CRPC because of its ability to produce testosterone intratumorally from circulating androstenedione, we determined testosterone concentrations in the prostate cancer cell lines and known high and low AKR1C3-expressing cells after stimulation with androstenedione for 24 h. […]

[6] = test system: other AKR1C isoforms; assay: Inhibition of isolated AKR1C enzymes; format: biochemical; conditions: 10 μM; unpublished data

CC1CCCCN1S(=O)(=O)c1ccc(N2CCCC2=O)cc1 (stereo not drawn) [SN33638]
Potency against AKR1C3 [1]: low nanomolar | Effect on 17β-estradiol levels [2]: no effect | inhibition at 10 µM [3]: 16% | Effect on 17β-estradiol levels [4]: no effect | inhibition at 10 µM [5]: 96.8% | Inhibition against each isolated enzyme (other AKR1C isoforms) [6]: < 14%
